Assay results as given in the Deep4Chem optical property database.

Test: solvent given as SMILES

With `C[Si](C)(C)C#Cc1ccc(C#C[Si](C)(C)C)c2ccccc12` as the molecule, how does the absorption maximum (in C1CCCCC1) read?
The absorption maximum was 347 nm.

With `CN(C)c1ccc2nc(/C=C/c3cc4c5c(c3)CCCN5CCC4)c(=O)oc2c1` as the molecule, how does the absorption maximum (in C1CCCCC1) read?
Its absorption maximum is 487 nm.

What about the absorption maximum (in C1COCCO1) of the same molecule?
The absorption maximum was 495.5 nm.

What about the absorption maximum (in CC#N) of the same molecule?
The absorption maximum was 507.5 nm.

And the absorption maximum (in CC(C)=O)?
Its absorption maximum is 507 nm.

What about the absorption maximum (in CCCCCCC) of the same molecule?
Its absorption maximum is 483 nm.

And the absorption maximum (in CCO)?
Its absorption maximum is 513 nm.

What about the absorption maximum (in CCOC(C)=O) of the same molecule?
Its absorption maximum is 501 nm.

What about the absorption maximum (in CN(C)C=O) of the same molecule?
Its absorption maximum is 516 nm.

And the absorption maximum (in CS(C)=O)?
Its absorption maximum is 522.5 nm.

What about the absorption maximum (in Cc1ccccc1) of the same molecule?
The absorption maximum was 505.5 nm.

And the absorption maximum (in ClC(Cl)Cl)?
Its absorption maximum is 517 nm.

And the absorption maximum (in ClCCl)?
Its absorption maximum is 514.5 nm.

For `C(#Cc1ccncc1)C(C#Cc1ccncc1)=Cc1ccc(C=C(C#Cc2ccncc2)C#Cc2ccncc2)s1`, which absorption maximum (in ClC(Cl)Cl) is on record?
Its absorption maximum is 522 nm.

With `CCOC(=O)c1ccc2nc(N)sc2c1` as the molecule, how does the absorption maximum (in CC#N) read?
The absorption maximum was 293 nm.

What about the absorption maximum (in ClCCl) of the same molecule?
Its absorption maximum is 293 nm.

With `Fc1c(-c2nnc(-c3ccccc3)o2)c(-n2c3ccccc3c3ccccc32)c(F)c(-n2c3ccccc3c3ccccc32)c1-n1c2ccccc2c2ccccc21` as the molecule, how does the absorption maximum (in Cc1ccccc1) read?
The absorption maximum was 361 nm.

For `COc1ccc(-c2cc(-c3ccc(C#N)cc3)nn2C)cc1`, which absorption maximum (in ClCCl) is on record?
Its absorption maximum is 281 nm.

For `CCCCN1C(=S)c2cccc3cccc(c23)C1=S`, which absorption maximum (in CC#N) is on record?
The absorption maximum was 437 nm.

And the absorption maximum (in CS(C)=O)?
Its absorption maximum is 443 nm.

And the absorption maximum (in Cc1ccccc1)?
The absorption maximum was 442 nm.

With `Cc1ccc2c(c1)c1cc(C)ccc1n2-c1cccc(-n2c3ccc(C)cc3c3cc(C)ccc32)c1C#N` as the molecule, how does the absorption maximum (in Cc1ccccc1) read?
Its absorption maximum is 368 nm.

With `c1cc2ccc3ccc(OP4(Oc5ccc6ccc7cccc8ccc5c6c78)=NP(Oc5ccc6ccc7cccc8ccc5c6c78)(Oc5ccc6ccc7cccc8ccc5c6c78)=NP(Oc5ccc6ccc7cccc8ccc5c6c78)(Oc5ccc6ccc7cccc8ccc5c6c78)=N4)c4ccc(c1)c2c34` as the molecule, how does the absorption maximum (in ClCCl) read?
Its absorption maximum is 343 nm.

For `CC(C)(C)c1ccc(Oc2cc3c4c(cc(Oc5ccc(C(C)(C)C)cc5)c5c6c(Oc7ccc(C(C)(C)C)cc7)cc7c8c(cc(Oc9ccc(C(C)(C)C)cc9)c(c2c45)c86)C(=O)C2=C7O[B-](F)(F)[n+]4c2ccc2ccccc24)C2=C(C3=O)c3ccc4ccccc4[n+]3[B-](F)(F)O2)cc1`, which absorption maximum (in ClCCl) is on record?
The absorption maximum was 650 nm.

With `N#CC1=CC(c2ccccc2)=CC(C#N)=P1(c1ccccc1)c1ccccc1` as the molecule, how does the absorption maximum (in ClC(Cl)Cl) read?
Its absorption maximum is 480 nm.

For `CCN(CC)c1ccc(C(=C(c2ccc(B(c3c(C)cc(C)cc3C)c3c(C)cc(C)cc3C)cc2)c2ccc(B(c3c(C)cc(C)cc3C)c3c(C)cc(C)cc3C)cc2)c2ccc(N(CC)CC)cc2)cc1`, which absorption maximum (in C1CCOC1) is on record?
The absorption maximum was 431 nm.

Which absorption maximum (in CC#N) does the source give for `CCCC(=O)c1c2c(c(C(=O)CCC)c3c1OC(CC(=O)OC)(C(=O)O)O3)OCO2` here?
Its absorption maximum is 424 nm.

What about the absorption maximum (in CCO) of the same molecule?
Its absorption maximum is 445 nm.

What about the absorption maximum (in CO) of the same molecule?
The absorption maximum was 442 nm.

What about the absorption maximum (in ClCCl) of the same molecule?
The absorption maximum was 423 nm.

What about the absorption maximum (in O) of the same molecule?
Its absorption maximum is 448 nm.

Which absorption maximum (in C1CCOC1) does the source give for `C[Si](C)(C)c1ccc(-c2ccc(-c3ccc(-c4ccc(-c5ccc([Si](C)(C)C)cc5)s4)c4nsnc34)s2)cc1` here?
Its absorption maximum is 495 nm.

Which absorption maximum (in ClCCl) does the source give for `C(=C\c1ncccn1)/c1ccc(-c2ccc(N(c3ccccc3)c3ccccc3)cc2)cc1` here?
Its absorption maximum is 373 nm.

Which absorption maximum (in ClCCl) does the source give for `CN(C)c1ccc(C2=[N+]3C(=Nc4c5ccccc5c(-c5ccc(N(C)C)cc5)n4[B-]3(F)F)c3ccccc32)cc1` here?
Its absorption maximum is 794 nm.

Which absorption maximum (in C1CCOC1) does the source give for `Cc1csc(C)c1C1=C(c2c(C)sc(-c3ccc(-c4nc(-c5ccccc5)c(-c5ccccc5)[nH]4)cc3)c2C)C(F)(F)C(F)(F)C1(F)F` here?
The absorption maximum was 339 nm.

Which absorption maximum (in C1COCCO1) does the source give for `CC(=O)Nc1ccc(C2=C/C(=C\c3ccc(C#N)cc3)C(=O)N2)cc1` here?
The absorption maximum was 456 nm.

With `CC[B-]1(CC)c2cccc3c4c5c(cccc5c(c23)-c2cccc(C)[n+]21)[B-](CC)(CC)[n+]1c(C)cccc1-4` as the molecule, how does the absorption maximum (in ClCCl) read?
Its absorption maximum is 538 nm.

Which absorption maximum (in ClCCl) does the source give for `N#Cc1ccc(N2c3c(sc4ccccc34)Sc3sc4ccccc4c32)cc1` here?
Its absorption maximum is 309 nm.

Which absorption maximum (in CC#N) does the source give for `Cc1cc(=O)oc2cc3cc(O)ccc3cc12` here?
Its absorption maximum is 343 nm.

And the absorption maximum (in CCO)?
Its absorption maximum is 357 nm.

Which absorption maximum (in ClC(Cl)Cl) does the source give for `CC[Si](CC)(CC)c1cc2ccc3cccc4ccc(c1C(=O)NC(C)(C)C)c2c34` here?
Its absorption maximum is 381 nm.

Which absorption maximum (in CO) does the source give for `CCC1(CC)c2cc(-c3ccc(C(C)(C)C)cc3)ccc2-c2ccc(-c3ccc4c(c3)C(CC)(CC)c3cc(-c5ccc6c(c5)C(CC)(CC)c5cc(-c7ccc(C(C)(C)C)cc7)ccc5-6)ccc3-4)cc21` here?
The absorption maximum was 360.54 nm.

For `O=S(=O)([O-])c1ccc2c([O-])cc(S(=O)(=O)[O-])cc2c1`, which absorption maximum (in O) is on record?
The absorption maximum was 350 nm.

With `N#Cc1c(N2CCCCC2)cc(-c2ccccc2)c2c1-c1ccccc1C2=O` as the molecule, how does the absorption maximum (in C1CCOC1) read?
The absorption maximum was 392 nm.

With `c1ccc2c3c(ccc2c1)-c1cccc2cc4ccccc4c-3c12` as the molecule, how does the absorption maximum (in CCCCCCC) read?
The absorption maximum was 446 nm.

For `CC(C)c1cc(C(C)C)c(B2c3ccccc3Oc3cc(-n4c5ccccc5c5ccc6c(c7ccccc7n6-c6ccccc6)c54)ccc32)c(C(C)C)c1`, which absorption maximum (in Cc1ccccc1) is on record?
The absorption maximum was 438 nm.

With `COC(=O)c1[nH]c(-c2ccc(Br)cc2)c2nnc3ccc(OC)cc3c12` as the molecule, how does the absorption maximum (in ClCCl) read?
Its absorption maximum is 395 nm.

For `Oc1ccc(C2=N[N+]3=Cc4c(ccc5ccccc45)O[B-]3(c3ccc([B-]45OC(c6ccc(O)cc6)=N[N+]4=Cc4c(ccc6ccccc46)O5)cc3)O2)cc1` (stereo not drawn), which absorption maximum (in C1CCOC1) is on record?
The absorption maximum was 424 nm.

For `CN(C)c1ccc(-n2c(-c3ccncc3)nc3nccnc32)cc1`, which absorption maximum (in CC#N) is on record?
Its absorption maximum is 309 nm.

For `O=C(NCc1cc(=O)oc2cc(O)c(Br)cc12)c1cccnc1`, which absorption maximum (in CC#N) is on record?
The absorption maximum was 392 nm.

What about the absorption maximum (in CO) of the same molecule?
The absorption maximum was 372 nm.

And the absorption maximum (in CS(C)=O)?
Its absorption maximum is 408 nm.

And the absorption maximum (in O)?
The absorption maximum was 330 nm.

For `CCCCCCCc1ccc(C2=[N+]3C(=C4c5cc(OCC(CC)CC)c(-c6ccc(CCCCCCC)o6)n5[B-](F)(F)[n+]5nnn(c54)[B-]3(F)F)C=C2OCC(CC)CC)o1`, which absorption maximum (in C1CCOC1) is on record?
Its absorption maximum is 811 nm.

What about the absorption maximum (in ClCCl) of the same molecule?
Its absorption maximum is 826 nm.

What does the source list for `COc1ccc2c3c([nH]c2c1)C(C)=NCC3`?
absorption maximum (in CC#N): 328 nm; absorption maximum (in CS(C)=O): 330 nm; absorption maximum (in O): 372 nm
